Reference: patent publication US8519096B2, “Citrullinated peptides for diagnosing and prognosing rheumatoid arthritis” (Nestec S.A., priority 2009, dated 2013)
Non-standard residues stand in square brackets, D forms with d. *: point of attachment. Biotin = O=C1N[C@H]2[C@H](CS[C@H]2CCCCC(=O)*)N1; Cit = NC(=O)NCCC[C@H](N)C(=O)O

These substances were tested on IgG ACPAs (assay: ACPA ELISA with anti-human IgG secondary antibody). Settings: Example 7, FIGS. 20-27.
Type: binding
Experimental: The synthetic citrullnated peptides set forth in Example 6, which were designed from synovial proteins, were synthesized and evaluated for their ability to diagnose and/or prognose RA. […] The peptides were then tested for IgG ACPA dose-response in samples of synovial fluid taken from both healthy patients and patients with RA.

Substance | IgG ACPA positive response (strong/moderate)
PL-SCRB: synthetic citrullinated peptide derived from PL scramblase, Table 8 (Biotin-TL[Cit]IIDNMGQEVITLE[Cit]PLRSITLERPL[Cit]SS-NH2; SMILES CC[C@H](C)[C@H](NC(=O)[C@H](CO)NC(=O)[C@H](CCCNC(=N)N)NC(=O)[C@H](CC(C)C)NC(=O)[C@@H]1CCCN1C(=O)[C@H](CCCNC(N)=O)NC(=O)[C@H](CCC(=O)O)NC(=O)[C@H](CC(C)C)NC(=O)[C@@H](NC(=O)[C@@H](NC(=O)[C@@H](NC(=O)[C@H](CCC(=O)O)NC(=O)[C@H](CCC(N)=O)NC(=O)CNC(=O)[C@H](CCSC)NC(=O)[C@H](CC(N)=O)NC(=O)[C@H](CC(=O)O)NC(=O)[C@@H](NC(=O)[C@@H](NC(=O)[C@H](CCCNC(N)=O)NC(=O)[C@H](CC(C)C)NC(=O)[C@@H](NC(=O)CCCC[C@@H]1SC[C@@H]2NC(=O)N[C@@H]21)[C@@H](C)O)[C@@H](C)CC)[C@@H](C)CC)C(C)C)[C@@H](C)CC)[C@@H](C)O)C(=O)N[C@H](C(=O)N[C@@H](CC(C)C)C(=O)N[C@@H](CCC(=O)O)C(=O)N[C@@H](CCCNC(=N)N)C(=O)N1CCC[C@H]1C(=O)N[C@@H](CC(C)C)C(=O)N[C@@H](CCCNC(N)=O)C(=O)N[C@@H](CO)C(=O)N[C@@H](CO)C(N)=O)[C@@H](C)O) | moderate
T9α1-1: synthetic citrullinated peptide derived from collagen (Coll.T9α1), Table 8 (Biotin-KRRP[Cit]FPVNSFQVDKAAS[Cit]AIQRVVGSRAIQ[Cit]VVGSA-NH2; SMILES CC[C@H](C)[C@H](NC(=O)[C@H](C)NC(=O)[C@H](CCCNC(=N)N)NC(=O)[C@H](CO)NC(=O)CNC(=O)[C@@H](NC(=O)[C@@H](NC(=O)[C@H](CCCNC(=N)N)NC(=O)[C@H](CCC(N)=O)NC(=O)[C@@H](NC(=O)[C@H](C)NC(=O)[C@H](CCCNC(N)=O)NC(=O)[C@H](CO)NC(=O)[C@H](C)NC(=O)[C@H](C)NC(=O)[C@H](CCCCN)NC(=O)[C@H](CC(=O)O)NC(=O)[C@@H](NC(=O)[C@H](CCC(N)=O)NC(=O)[C@H](Cc1ccccc1)NC(=O)[C@H](CO)NC(=O)[C@H](CC(N)=O)NC(=O)[C@@H](NC(=O)[C@@H]1CCCN1C(=O)[C@H](Cc1ccccc1)NC(=O)[C@H](CCCNC(N)=O)NC(=O)[C@@H]1CCCN1C(=O)[C@H](CCCNC(=N)N)NC(=O)[C@H](CCCNC(=N)N)NC(=O)[C@H](CCCCN)NC(=O)CCCC[C@@H]1SC[C@@H]2NC(=O)N[C@@H]21)C(C)C)C(C)C)[C@@H](C)CC)C(C)C)C(C)C)C(=O)N[C@@H](CCC(N)=O)C(=O)N[C@@H](CCCNC(N)=O)C(=O)N[C@H](C(=O)N[C@H](C(=O)NCC(=O)N[C@@H](CO)C(=O)N[C@@H](C)C(N)=O)C(C)C)C(C)C) | moderate
Bip-3: synthetic citrullinated peptide derived from BiP, Table 8 (Biotin-GEDFSETLT[Cit]DLF[Cit]STMKPIVLVGGST[Cit]R-NH2; SMILES CC[C@H](C)[C@H](NC(=O)[C@@H]1CCCN1C(=O)[C@H](CCCCN)NC(=O)[C@H](CCSC)NC(=O)[C@@H](NC(=O)[C@H](CO)NC(=O)[C@H](CCCNC(N)=O)NC(=O)[C@H](Cc1ccccc1)NC(=O)[C@H](CC(C)C)NC(=O)[C@H](CC(=O)O)NC(=O)[C@H](CCCNC(N)=O)NC(=O)[C@@H](NC(=O)[C@H](CC(C)C)NC(=O)[C@@H](NC(=O)[C@H](CCC(=O)O)NC(=O)[C@H](CO)NC(=O)[C@H](Cc1ccccc1)NC(=O)[C@H](CC(=O)O)NC(=O)[C@H](CCC(=O)O)NC(=O)CNC(=O)CCCC[C@@H]1SC[C@@H]2NC(=O)N[C@@H]21)[C@@H](C)O)[C@@H](C)O)[C@@H](C)O)C(=O)N[C@H](C(=O)N[C@@H](CC(C)C)C(=O)N[C@H](C(=O)NCC(=O)NCC(=O)N[C@@H](CO)C(=O)N[C@H](C(=O)N[C@@H](CCCNC(N)=O)C(=O)N[C@@H](CCCNC(=N)N)C(N)=O)[C@@H](C)O)C(C)C)C(C)C) | moderate
H3-2: synthetic citrullinated peptide derived from histone (H3), Table 8 (Biotin-DFKTDL[Cit]FQSSAVMARRIRGE[Cit]AG-NH2; SMILES CC[C@H](C)[C@H](NC(=O)[C@H](CCCNC(=N)N)NC(=O)[C@H](CCCNC(=N)N)NC(=O)[C@H](C)NC(=O)[C@H](CCSC)NC(=O)[C@@H](NC(=O)[C@H](C)NC(=O)[C@H](CO)NC(=O)[C@H](CO)NC(=O)[C@H](CCC(N)=O)NC(=O)[C@H](Cc1ccccc1)NC(=O)[C@H](CCCNC(N)=O)NC(=O)[C@H](CC(C)C)NC(=O)[C@H](CC(=O)O)NC(=O)[C@@H](NC(=O)[C@H](CCCCN)NC(=O)[C@H](Cc1ccccc1)NC(=O)[C@H](CC(=O)O)NC(=O)CCCC[C@@H]1SC[C@@H]2NC(=O)N[C@@H]21)[C@@H](C)O)C(C)C)C(=O)N[C@@H](CCCNC(=N)N)C(=O)NCC(=O)N[C@@H](CCC(=O)O)C(=O)N[C@@H](CCCNC(N)=O)C(=O)N[C@@H](C)C(=O)NCC(N)=O) | moderate
Apo a-6: synthetic citrullinated peptide derived from Apolipoprotein a, Table 8 (Biotin-HWHR[Cit]IPLYYPNAGLT[Cit]AGLTRNYS[Cit]N-NH2; SMILES CC[C@H](C)[C@H](NC(=O)[C@H](CCCNC(N)=O)NC(=O)[C@H](CCCNC(=N)N)NC(=O)[C@H](Cc1c[nH]cn1)NC(=O)[C@H](Cc1c[nH]c2ccccc12)NC(=O)[C@H](Cc1c[nH]cn1)NC(=O)CCCC[C@@H]1SC[C@@H]2NC(=O)N[C@@H]21)C(=O)N1CCC[C@H]1C(=O)N[C@@H](CC(C)C)C(=O)N[C@@H](Cc1ccc(O)cc1)C(=O)N[C@@H](Cc1ccc(O)cc1)C(=O)N1CCC[C@H]1C(=O)N[C@@H](CC(N)=O)C(=O)N[C@@H](C)C(=O)NCC(=O)N[C@@H](CC(C)C)C(=O)N[C@H](C(=O)N[C@@H](CCCNC(N)=O)C(=O)N[C@@H](C)C(=O)NCC(=O)N[C@@H](CC(C)C)C(=O)N[C@H](C(=O)N[C@@H](CCCNC(=N)N)C(=O)N[C@@H](CC(N)=O)C(=O)N[C@@H](Cc1ccc(O)cc1)C(=O)N[C@@H](CO)C(=O)N[C@@H](CCCNC(N)=O)C(=O)N[C@@H](CC(N)=O)C(N)=O)[C@@H](C)O)[C@@H](C)O) | strong
FBNT-10: synthetic citrullinated peptide derived from fibronectin, Table 8 (Biotin-GGFR[Cit]TTPPTTF[Cit]RTTPPTTAR-NH2; SMILES C[C@H](NC(=O)[C@@H](NC(=O)[C@@H](NC(=O)[C@@H]1CCCN1C(=O)[C@@H]1CCCN1C(=O)[C@@H](NC(=O)[C@@H](NC(=O)[C@H](CCCNC(=N)N)NC(=O)[C@H](CCCNC(N)=O)NC(=O)[C@H](Cc1ccccc1)NC(=O)[C@@H](NC(=O)[C@@H](NC(=O)[C@@H]1CCCN1C(=O)[C@@H]1CCCN1C(=O)[C@@H](NC(=O)[C@@H](NC(=O)[C@H](CCCNC(N)=O)NC(=O)[C@H](CCCNC(=N)N)NC(=O)[C@H](Cc1ccccc1)NC(=O)CNC(=O)CNC(=O)CCCC[C@@H]1SC[C@@H]2NC(=O)N[C@@H]21)[C@@H](C)O)[C@@H](C)O)[C@@H](C)O)[C@@H](C)O)[C@@H](C)O)[C@@H](C)O)[C@@H](C)O)[C@@H](C)O)C(=O)N[C@@H](CCCNC(=N)N)C(N)=O) | moderate
FBNT-5: synthetic citrullinated peptide derived from fibronectin, Table 8 (Biotin-RGVLTVSWE[Cit]STTPDITGY[Cit]ITTTPTNR-NH2; SMILES CC[C@H](C)[C@H](NC(=O)[C@H](CC(=O)O)NC(=O)[C@@H]1CCCN1C(=O)[C@@H](NC(=O)[C@@H](NC(=O)[C@H](CO)NC(=O)[C@H](CCCNC(N)=O)NC(=O)[C@H](CCC(=O)O)NC(=O)[C@H](Cc1c[nH]c2ccccc12)NC(=O)[C@H](CO)NC(=O)[C@@H](NC(=O)[C@@H](NC(=O)[C@H](CC(C)C)NC(=O)[C@@H](NC(=O)CNC(=O)[C@H](CCCNC(=N)N)NC(=O)CCCC[C@@H]1SC[C@@H]2NC(=O)N[C@@H]21)C(C)C)[C@@H](C)O)C(C)C)[C@@H](C)O)[C@@H](C)O)C(=O)N[C@H](C(=O)NCC(=O)N[C@@H](Cc1ccc(O)cc1)C(=O)N[C@@H](CCCNC(N)=O)C(=O)N[C@H](C(=O)N[C@H](C(=O)N[C@H](C(=O)N[C@H](C(=O)N1CCC[C@H]1C(=O)N[C@H](C(=O)N[C@@H](CC(N)=O)C(=O)N[C@@H](CCCNC(=N)N)C(N)=O)[C@@H](C)O)[C@@H](C)O)[C@@H](C)O)[C@@H](C)O)[C@@H](C)CC)[C@@H](C)O) | moderate
T2α1-3: synthetic citrullinated peptide derived from collagen (Coll.T2α1), Table 8 (Biotin-KWGKTVIEY[Cit]SQKTSRLYRSQKTS[Cit]LG-NH2; SMILES CC[C@H](C)[C@H](NC(=O)[C@@H](NC(=O)[C@@H](NC(=O)[C@H](CCCCN)NC(=O)CNC(=O)[C@H](Cc1c[nH]c2ccccc12)NC(=O)[C@H](CCCCN)NC(=O)CCCC[C@@H]1SC[C@@H]2NC(=O)N[C@@H]21)[C@@H](C)O)C(C)C)C(=O)N[C@@H](CCC(=O)O)C(=O)N[C@@H](Cc1ccc(O)cc1)C(=O)N[C@@H](CCCNC(N)=O)C(=O)N[C@@H](CO)C(=O)N[C@@H](CCC(N)=O)C(=O)N[C@@H](CCCCN)C(=O)N[C@H](C(=O)N[C@@H](CO)C(=O)N[C@@H](CCCNC(=N)N)C(=O)N[C@@H](CC(C)C)C(=O)N[C@@H](Cc1ccc(O)cc1)C(=O)N[C@@H](CCCNC(=N)N)C(=O)N[C@@H](CO)C(=O)N[C@@H](CCC(N)=O)C(=O)N[C@@H](CCCCN)C(=O)N[C@H](C(=O)N[C@@H](CO)C(=O)N[C@@H](CCCNC(N)=O)C(=O)N[C@@H](CC(C)C)C(=O)NCC(N)=O)[C@@H](C)O)[C@@H](C)O) | moderate
MLBS-1: synthetic citrullinated peptide derived from myeloblastin, Table 8 (Biotin-HS[Cit]PYMASLQM[Cit]GNPGSH-NH2; SMILES CSCC[C@H](NC(=O)[C@H](Cc1ccc(O)cc1)NC(=O)[C@@H]1CCCN1C(=O)[C@H](CCCNC(N)=O)NC(=O)[C@H](CO)NC(=O)[C@H](Cc1c[nH]cn1)NC(=O)CCCC[C@@H]1SC[C@@H]2NC(=O)N[C@@H]21)C(=O)N[C@@H](C)C(=O)N[C@@H](CO)C(=O)N[C@@H](CC(C)C)C(=O)N[C@@H](CCC(N)=O)C(=O)N[C@@H](CCSC)C(=O)N[C@@H](CCCNC(N)=O)C(=O)NCC(=O)N[C@@H](CC(N)=O)C(=O)N1CCC[C@H]1C(=O)NCC(=O)N[C@@H](CO)C(=O)N[C@@H](Cc1c[nH]cn1)C(N)=O) | moderate
